Source: PubChem BioAssay (NCI)
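Method: 48-hour compound exposure of cells in 96-well plates, five concentrations, linear interpolation of endpoints. TGI: total growth inhibition.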

Legend:
Assay in all cases: NCI anticancer screen, dose series, 48 h
UO-31 renal = tested on: UO-31 renal
SF-295 CNS = tested on: SF-295 CNS
HL-60(TB) leukemia = tested on: HL-60(TB) leukemia
A549 NSCLC = tested on: A549 NSCLC
IGROV1 ovarian = tested on: IGROV1 ovarian
KM12 colon = tested on: KM12 colon
RXF 393 renal = tested on: RXF 393 renal
SK-MEL-28 melanoma = tested on: SK-MEL-28 melanoma
T-47D breast = tested on: T-47D breast
SK-MEL-5 melanoma = tested on: SK-MEL-5 melanoma
CCRF-CEM leukemia = tested on: CCRF-CEM leukemia
CAKI-1 renal = tested on: CAKI-1 renal
PC-3 prostate = tested on: PC-3 prostate
MALME-3M melanoma = tested on: MALME-3M melanoma
NCI/ADR-RES ovarian = tested on: NCI/ADR-RES ovarian
HOP-62 NSCLC = tested on: HOP-62 NSCLC
NCI-H23 lung = tested on: NCI-H23 lung
SR leukemia = tested on: SR leukemia
NCI-H460 lung = tested on: NCI-H460 lung
SNB-19 CNS = tested on: SNB-19 CNS

CCc1cc2c(cc1CCCC(=O)O)CC1(Cc3ccc(C(=O)O)cc3C1)C2 (stereo not given)
TGI (UO-31 renal): > 100 µM | TGI (SF-295 CNS): > 100 µM | TGI (HL-60(TB) leukemia): > 100 µM | TGI (A549 NSCLC): > 100 µM | TGI (IGROV1 ovarian): > 100 µM | TGI (KM12 colon): > 100 µM | TGI (RXF 393 renal): > 100 µM | TGI (SK-MEL-28 melanoma): > 100 µM | TGI (T-47D breast): > 100 µM | TGI (SK-MEL-5 melanoma): > 100 µM | TGI (CCRF-CEM leukemia): > 100 µM | TGI (CAKI-1 renal): > 100 µM | TGI (PC-3 prostate): > 100 µM | TGI (MALME-3M melanoma): > 100 µM | TGI (NCI/ADR-RES ovarian): > 100 µM | TGI (HOP-62 NSCLC): > 100 µM | TGI (NCI-H23 lung): > 100 µM | TGI (SR leukemia): > 100 µM | TGI (NCI-H460 lung): > 100 µM | TGI (SNB-19 CNS): > 100 µM

NC1=Nc2ccccc2Sc2nnc(-c3ccc(Cl)cc3)n21
TGI (UO-31 renal): > 100 µM | TGI (SF-295 CNS): > 100 µM | TGI (HL-60(TB) leukemia): > 100 µM | TGI (A549 NSCLC): > 100 µM | TGI (IGROV1 ovarian): > 100 µM | TGI (KM12 colon): > 100 µM | TGI (RXF 393 renal): > 100 µM | TGI (SK-MEL-28 melanoma): > 100 µM | TGI (T-47D breast): > 100 µM | TGI (SK-MEL-5 melanoma): > 100 µM | TGI (CCRF-CEM leukemia): 56.2 µM | TGI (CAKI-1 renal): > 100 µM | TGI (PC-3 prostate): > 100 µM | TGI (MALME-3M melanoma): > 100 µM | TGI (NCI/ADR-RES ovarian): > 100 µM | TGI (HOP-62 NSCLC): 85 µM | TGI (NCI-H23 lung): > 100 µM | TGI (SR leukemia): > 100 µM | TGI (NCI-H460 lung): > 100 µM | TGI (SNB-19 CNS): > 100 µM

O=Cc1cc2c(o1)C(=O)c1ccccc1C2=O
TGI (UO-31 renal): 4.6 µM | TGI (SF-295 CNS): 0.813 µM | TGI (HL-60(TB) leukemia): 1.15 µM | TGI (A549 NSCLC): 3.02 µM | TGI (IGROV1 ovarian): 4.46 µM | TGI (KM12 colon): 4.54 µM | TGI (RXF 393 renal): 2.99 µM | TGI (SK-MEL-28 melanoma): 1.08 µM | TGI (T-47D breast): 3.94 µM | TGI (SK-MEL-5 melanoma): 0.698 µM | TGI (CCRF-CEM leukemia): 6.4 µM | TGI (CAKI-1 renal): 9.54 µM | TGI (PC-3 prostate): 11.6 µM | TGI (MALME-3M melanoma): 0.37 µM | TGI (NCI/ADR-RES ovarian): 5.54 µM | TGI (HOP-62 NSCLC): 2.6 µM | TGI (NCI-H23 lung): 0.465 µM | TGI (SR leukemia): 3.68 µM | TGI (NCI-H460 lung): 2.39 µM | TGI (SNB-19 CNS): 1.62 µM

COC1OC(COC(=O)NCCCCC(=O)C(F)(F)F)C(O)C(O)C1O (stereo not given)
TGI (UO-31 renal): > 100 µM | TGI (SF-295 CNS): > 100 µM | TGI (HL-60(TB) leukemia): > 100 µM | TGI (A549 NSCLC): > 100 µM | TGI (IGROV1 ovarian): > 100 µM | TGI (KM12 colon): > 100 µM | TGI (RXF 393 renal): > 100 µM | TGI (SK-MEL-28 melanoma): > 100 µM | TGI (T-47D breast): > 100 µM | TGI (SK-MEL-5 melanoma): > 100 µM | TGI (CCRF-CEM leukemia): > 100 µM | TGI (CAKI-1 renal): > 100 µM | TGI (PC-3 prostate): > 100 µM | TGI (MALME-3M melanoma): > 100 µM | TGI (NCI/ADR-RES ovarian): > 100 µM | TGI (HOP-62 NSCLC): > 100 µM | TGI (NCI-H23 lung): > 100 µM | TGI (SR leukemia): > 100 µM | TGI (NCI-H460 lung): > 100 µM | TGI (SNB-19 CNS): > 100 µM

O=C1C(N=Nc2ccc(-c3nc4ccccc4o3)cc2)NC(=S)N1c1ccccc1 (stereo not given)
TGI (UO-31 renal): > 100 µM | TGI (SF-295 CNS): > 100 µM | TGI (HL-60(TB) leukemia): 0.742 µM | TGI (A549 NSCLC): > 100 µM | TGI (IGROV1 ovarian): > 100 µM | TGI (KM12 colon): > 100 µM | TGI (RXF 393 renal): > 100 µM | TGI (SK-MEL-28 melanoma): > 100 µM | TGI (T-47D breast): > 100 µM | TGI (SK-MEL-5 melanoma): > 100 µM | TGI (CCRF-CEM leukemia): 0.679 µM | TGI (CAKI-1 renal): > 100 µM | TGI (PC-3 prostate): > 100 µM | TGI (MALME-3M melanoma): > 100 µM | TGI (NCI/ADR-RES ovarian): > 100 µM | TGI (HOP-62 NSCLC): > 100 µM | TGI (NCI-H23 lung): > 100 µM | TGI (SR leukemia): 85.6 µM | TGI (NCI-H460 lung): > 100 µM | TGI (SNB-19 CNS): > 100 µM

Cc1cc(NS(=O)(=O)c2ccc(Nc3c4ccccc4nc4ccc(C(=O)Nc5ccc(S(=O)(=O)N=C(N)N)cc5)cc34)cc2)no1
TGI (UO-31 renal): > 100 µM | TGI (SF-295 CNS): > 100 µM | TGI (HL-60(TB) leukemia): > 100 µM | TGI (A549 NSCLC): > 100 µM | TGI (IGROV1 ovarian): > 100 µM | TGI (KM12 colon): > 100 µM | TGI (RXF 393 renal): > 100 µM | TGI (SK-MEL-28 melanoma): > 100 µM | TGI (T-47D breast): > 100 µM | TGI (SK-MEL-5 melanoma): > 100 µM | TGI (CCRF-CEM leukemia): > 100 µM | TGI (CAKI-1 renal): > 100 µM | TGI (PC-3 prostate): > 100 µM | TGI (MALME-3M melanoma): > 100 µM | TGI (NCI/ADR-RES ovarian): > 100 µM | TGI (HOP-62 NSCLC): > 100 µM | TGI (NCI-H23 lung): > 100 µM | TGI (SR leukemia): > 100 µM | TGI (NCI-H460 lung): > 100 µM | TGI (SNB-19 CNS): > 100 µM

CN(N)/N=N/c1nc[nH]c1C(N)=O
TGI (UO-31 renal): > 62.2 µM | TGI (SF-295 CNS): > 70.9 µM | TGI (HL-60(TB) leukemia): 14.6 µM | TGI (A549 NSCLC): > 100 µM | TGI (IGROV1 ovarian): > 100 µM | TGI (KM12 colon): > 82.4 µM | TGI (RXF 393 renal): > 100 µM | TGI (SK-MEL-28 melanoma): > 100 µM | TGI (T-47D breast): > 100 µM | TGI (SK-MEL-5 melanoma): > 100 µM | TGI (CCRF-CEM leukemia): > 27 µM | TGI (CAKI-1 renal): 55.2 µM | TGI (PC-3 prostate): > 100 µM | TGI (MALME-3M melanoma): > 100 µM | TGI (NCI/ADR-RES ovarian): > 100 µM | TGI (HOP-62 NSCLC): > 100 µM | TGI (NCI-H23 lung): > 100 µM | TGI (SR leukemia): 2.23 µM | TGI (NCI-H460 lung): > 71.5 µM | TGI (SNB-19 CNS): > 100 µM

O=C(O)c1cc2c(s1)C(=O)c1sccc1C2=O
TGI (UO-31 renal): 16 µM | TGI (SF-295 CNS): 5.25 µM | TGI (HL-60(TB) leukemia): 19 µM | TGI (A549 NSCLC): 8.39 µM | TGI (IGROV1 ovarian): 30.9 µM | TGI (KM12 colon): 21.1 µM | TGI (RXF 393 renal): 16.9 µM | TGI (SK-MEL-28 melanoma): 3.45 µM | TGI (T-47D breast): 17.3 µM | TGI (SK-MEL-5 melanoma): 3.32 µM | TGI (CCRF-CEM leukemia): 33.1 µM | TGI (CAKI-1 renal): 31.8 µM | TGI (PC-3 prostate): 43.5 µM | TGI (MALME-3M melanoma): 0.806 µM | TGI (NCI/ADR-RES ovarian): 18.5 µM | TGI (HOP-62 NSCLC): 11.6 µM | TGI (NCI-H23 lung): 4.71 µM | TGI (SR leukemia): 8.38 µM | TGI (NCI-H460 lung): 33 µM | TGI (SNB-19 CNS): 17.1 µM
